Laboratory results as given in the NIST ThermoML archive (doi:10.1016/j.jct.2018.03.019).
Numbers after ± are expanded uncertainties. Values belong to the compound of their own block, whether it stands above or below them.

Conditions: Liquid, Ebulliometric method (Recirculating still)

vapor or sublimation pressure (339.13 K): 101.3 ± 0.71 kPa
SMILES: CC(C)N(C)C [N,N-dimethylisopropylamine]

SMILES: CC(C)=O [acetone]
vapor or sublimation pressure (329.56 K): 101.3 ± 0.66 kPa

vapor or sublimation pressure (439.05 K): 101.3 ± 0.71 kPa
SMILES: CC(=O)N(C)C [N,N-dimethylethanamide]

SMILES: O=Cc1ccco1 [2-furaldehyde]
vapor or sublimation pressure (435.15 K): 101.3 ± 0.71 kPa
